In ChEMBL document CHEMBL1782000, “Thiazole-based chalcones as potent antimicrobial agents. Synthesis and biological evaluation” (2011):

Key:
Staphylococcus aureus [1] = assay: Antibacterial activity against Staphylococcus aureus ATCC 6538 after 24 hrs by microdilution method; assay type: functional; conditions: ATCC 6538, 24 h
Bacillus cereus [2] = assay: Antibacterial activity against Bacillus cereus clinical isolate after 24 hrs by microdilution method; assay type: functional
Micrococcus flavus [3] = assay: Antibacterial activity against Micrococcus flavus ATCC 10240 after 24 hrs by microdilution method; assay type: functional; conditions: ATCC 10240, 24 h
Listeria monocytogenes [4] = assay: Antibacterial activity against Listeria monocytogenes NCTC 7973 after 24 hrs by microdilution method; assay type: functional; conditions: NCTC 7973, 24 h
Pseudomonas aeruginosa [5] = assay: Antibacterial activity against Pseudomonas aeruginosa ATCC 27853 after 24 hrs by microdilution method; assay type: functional; conditions: ATCC 27853, 24 h
Salmonella typhimurium [6] = assay: Antibacterial activity against Salmonella Typhimurium ATCC 13311 after 24 hrs by microdilution method; assay type: functional, Salmonella enterica subsp. enterica serovar Typhimurium; conditions: Salmonella enterica, ATCC 13311, 24 h
Escherichia coli [7] = assay: Antibacterial activity against Escherichia coli ATCC 35210 after 24 hrs by microdilution method; assay type: functional; conditions: ATCC 35210, 24 h
Enterococcus faecalis [8] = assay: Antibacterial activity against Enterococcus faecalis isolate obtained from human after 24 hrs by microdilution method; assay type: functional
Staphylococcus aureus [9] = assay: Bactericidal activity against Staphylococcus aureus ATCC 6538 after 24 hrs; assay type: functional; conditions: ATCC 6538, 24 h
Bacillus cereus [10] = assay: Bactericidal activity against Bacillus cereus clinical isolate after 24 hrs; assay type: functional
Micrococcus flavus [11] = assay: Bactericidal activity against Micrococcus flavus ATCC 10240 after 24 hrs; assay type: functional; conditions: ATCC 10240, 24 h
Listeria monocytogenes [12] = assay: Bactericidal activity against Listeria monocytogenes NCTC 7973 after 24 hrs; assay type: functional; conditions: NCTC 7973, 24 h
Pseudomonas aeruginosa [13] = assay: Bactericidal activity against Pseudomonas aeruginosa ATCC 27853 after 24 hrs; assay type: functional; conditions: ATCC 27853, 24 h
Salmonella typhimurium [14] = assay: Bactericidal activity against Salmonella Typhimurium ATCC 13311 after 24 hrs; assay type: functional, Salmonella enterica subsp. enterica serovar Typhimurium; conditions: Salmonella enterica, ATCC 13311, 24 h
Escherichia coli [15] = assay: Bactericidal activity against Escherichia coli ATCC 35210 after 24 hrs; assay type: functional; conditions: ATCC 35210, 24 h
Enterococcus faecalis [16] = assay: Bactericidal activity against Enterococcus faecalis isolate obtained from human after 24 hrs; assay type: functional
Aspergillus ochraceus [17] = assay: Antifungal activity against Aspergillus ochraceus ATCC 12066 after 72 hrs by serial dilution method; assay type: functional; conditions: ATCC 12066, 72 h
Aspergillus versicolor [18] = assay: Antifungal activity against Aspergillus versicolor ATCC 11730 after 72 hrs by serial dilution method; assay type: functional; conditions: ATCC 11730, 72 h
Aspergillus niger [19] = assay: Antifungal activity against Aspergillus niger ATCC 6275 after 72 hrs by serial dilution method; assay type: functional; conditions: ATCC 6275, 72 h
Aspergillus fumigatus [20] = assay: Antifungal activity against Aspergillus fumigatus plant isolate after 72 hrs by serial dilution method; assay type: functional
Trichoderma viride [21] = assay: Antifungal activity against Trichoderma viride IAM 5061 after 72 hrs by serial dilution method; assay type: functional; conditions: IAM 5061, 72 h
Penicillium ochrochloron [22] = assay: Antifungal activity against Penicillium ochrochloron ATCC 9112 after 72 hrs by serial dilution method; assay type: functional; conditions: ATCC 9112, 72 h
Talaromyces funiculosus [23] = assay: Antifungal activity against Penicillium funiculosum ATCC 36839 after 72 hrs by serial dilution method; assay type: functional; conditions: ATCC 36839, 72 h
[24] = Antifungal activity against Fusarium sporotrichioides IMT 496 after 72 hrs by serial dilution method; assay type: functional
Aspergillus ochraceus [25] = assay: Fungicidal activity against Aspergillus ochraceus ATCC 12066 after 72 hrs; assay type: functional; conditions: ATCC 12066, 72 h
Aspergillus versicolor [26] = assay: Fungicidal activity against Aspergillus versicolor ATCC 11730 after 72 hrs; assay type: functional; conditions: ATCC 11730, 72 h
Aspergillus niger [27] = assay: Fungicidal activity against Aspergillus niger ATCC 6275 after 72 hrs; assay type: functional; conditions: ATCC 6275, 72 h
Aspergillus fumigatus [28] = assay: Fungicidal activity against Aspergillus fumigatus plant isolate after 72 hrs; assay type: functional
Trichoderma viride [29] = assay: Fungicidal activity against Trichoderma viride IAM 5061 after 72 hrs; assay type: functional; conditions: IAM 5061, 72 h
Penicillium ochrochloron [30] = assay: Fungicidal activity against Penicillium ochrochloron ATCC 9112 after 72 hrs; assay type: functional; conditions: ATCC 9112, 72 h
Talaromyces funiculosus [31] = assay: Fungicidal activity against Penicillium funiculosum ATCC 36839 after 72 hrs; assay type: functional; conditions: ATCC 36839, 72 h
[32] = tested on: Fusarium sporotrichioides; assay: Fungicidal activity against Fusarium sporotrichioides IMT 496 after 72 hrs; assay type: functional; conditions: IMT 496, 72 h

CNc1nc(C)c(C(=O)/C=C/c2ccccc2)s1
329 µM: MIC (Salmonella typhimurium [6]) | MIC (Escherichia coli [7])
194 µM: MIC (Micrococcus flavus [3]) | MIC (Enterococcus faecalis [8]) | MIC (Aspergillus versicolor [18]) | MIC (Trichoderma viride [21]) | MIC (Penicillium ochrochloron [22])
581 µM: MBC (Staphylococcus aureus [9]) | MBC (Bacillus cereus [10]) | MBC (Listeria monocytogenes [12]) | MFC (Aspergillus ochraceus [25]) | MFC (Aspergillus versicolor [26]) | MFC (Aspergillus fumigatus [28]) | MFC (Talaromyces funiculosus [31])
775 µM: MFC (Aspergillus niger [27]) | MFC (Penicillium ochrochloron [30])
38.8: MIC (10'-2 umol/ml) [24]
291 µM: MIC (Pseudomonas aeruginosa [5])
388 µM: MIC (Staphylococcus aureus [1]) | MIC (Bacillus cereus [2]) | MIC (Listeria monocytogenes [4]) | MBC (Micrococcus flavus [11]) | MBC (Pseudomonas aeruginosa [13]) | MBC (Salmonella typhimurium [14]) | MBC (Escherichia coli [15]) | MBC (Enterococcus faecalis [16]) | MIC (Aspergillus ochraceus [17]) | MIC (Aspergillus niger [19]) | MIC (Aspergillus fumigatus [20]) | MIC (Talaromyces funiculosus [23]) | MFC (Trichoderma viride [29]) | MFC [32]

CNc1nc(C)c(C(=O)/C=C/c2ccccc2OC)s1
17: MIC (10'-2 umol/ml) [24]
870 µM: MFC (Aspergillus niger [27])
521 µM: MBC (Listeria monocytogenes [12]) | MBC (Salmonella typhimurium [14])
295 µM: MIC (Pseudomonas aeruginosa [5]) | MBC (Micrococcus flavus [11])
340 µM: MIC (Aspergillus versicolor [18]) | MIC (Aspergillus niger [19]) | MIC (Aspergillus fumigatus [20]) | MIC (Penicillium ochrochloron [22]) | MIC (Talaromyces funiculosus [23]) | MFC (Aspergillus ochraceus [25]) | MFC (Trichoderma viride [29]) | MFC [32]
690 µM: MFC (Talaromyces funiculosus [31])
260 µM: MIC (Micrococcus flavus [3]) | MIC (Escherichia coli [7]) | MIC (Enterococcus faecalis [8])
170 µM: MIC (Aspergillus ochraceus [17]) | MIC (Trichoderma viride [21])
347 µM: MIC (Staphylococcus aureus [1]) | MIC (Bacillus cereus [2]) | MIC (Listeria monocytogenes [4]) | MIC (Salmonella typhimurium [6]) | MBC (Staphylococcus aureus [9]) | MBC (Bacillus cereus [10]) | MBC (Pseudomonas aeruginosa [13]) | MBC (Escherichia coli [15]) | MBC (Enterococcus faecalis [16])
520 µM: MFC (Aspergillus versicolor [26]) | MFC (Aspergillus fumigatus [28]) | MFC (Penicillium ochrochloron [30])

CNc1nc(C)c(C(=O)/C=C/c2ccc([N+](=O)[O-])cc2)s1
250 µM: MIC (Aspergillus ochraceus [17])
495 µM: MBC (Staphylococcus aureus [9]) | MBC (Bacillus cereus [10]) | MBC (Micrococcus flavus [11]) | MBC (Listeria monocytogenes [12]) | MBC (Pseudomonas aeruginosa [13])
496 µM: MFC (Aspergillus versicolor [26]) | MFC (Aspergillus fumigatus [28]) | MFC (Penicillium ochrochloron [30]) | MFC (Talaromyces funiculosus [31])
248 µM: MIC (Salmonella typhimurium [6]) | MIC (Escherichia coli [7])
825 µM: MFC (Aspergillus niger [27])
330 µM: MIC (Staphylococcus aureus [1]) | MIC (Bacillus cereus [2]) | MIC (Micrococcus flavus [3]) | MIC (Listeria monocytogenes [4]) | MIC (Pseudomonas aeruginosa [5]) | MBC (Salmonella typhimurium [14]) | MBC (Escherichia coli [15]) | MBC (Enterococcus faecalis [16]) | MIC (Aspergillus versicolor [18]) | MIC (Aspergillus niger [19]) | MIC (Aspergillus fumigatus [20]) | MIC (Penicillium ochrochloron [22]) | MIC (Talaromyces funiculosus [23]) | MFC (Aspergillus ochraceus [25]) | MFC (Trichoderma viride [29])
16.5: MIC (10'-2 umol/ml) [24]
165 µM: MIC (Enterococcus faecalis [8]) | MIC (Trichoderma viride [21])
660 µM: MFC [32]

CC(=O)N1CCN(c2ccc(OCC3COC(Cn4ccnc4)(c4ccc(Cl)cc4Cl)O3)cc2)CC1 (centres undefined) [KETOCONAZOLE]
9.4 µM: MIC (Talaromyces funiculosus [23])
9.42: MIC (10'-2 umol/ml) [24]
94.2 µM: MIC (Trichoderma viride [21]) | MFC (Aspergillus ochraceus [25]) | MFC (Aspergillus fumigatus [28])
188 µM: MFC (Trichoderma viride [29]) | MFC [32]
18.8 µM: MIC (Aspergillus versicolor [18]) | MIC (Penicillium ochrochloron [22]) | MFC (Talaromyces funiculosus [31])
282 µM: MIC (Aspergillus niger [19])
47 µM: MIC (Aspergillus ochraceus [17]) | MIC (Aspergillus fumigatus [20]) | MFC (Aspergillus versicolor [26]) | MFC (Penicillium ochrochloron [30])
470 µM: MFC (Aspergillus niger [27])

CNc1nc(C)c(C(=O)/C=C/c2cccc(Cl)c2)s1
256 µM: MIC (Micrococcus flavus [3])
854 µM: MFC (Aspergillus niger [27])
342 µM: MIC (Staphylococcus aureus [1]) | MIC (Bacillus cereus [2]) | MIC (Listeria monocytogenes [4]) | MIC (Pseudomonas aeruginosa [5]) | MBC (Micrococcus flavus [11]) | MBC (Salmonella typhimurium [14]) | MBC (Escherichia coli [15]) | MBC (Enterococcus faecalis [16])
85.4 µM: MIC (Enterococcus faecalis [8])
683 µM: MFC [32]
170 µM: MIC (Trichoderma viride [21])
290 µM: MIC (Salmonella typhimurium [6]) | MIC (Escherichia coli [7])
340 µM: MIC (Aspergillus ochraceus [17]) | MIC (Aspergillus versicolor [18]) | MIC (Aspergillus niger [19]) | MIC (Aspergillus fumigatus [20]) | MIC (Penicillium ochrochloron [22]) | MIC (Talaromyces funiculosus [23]) | MFC (Trichoderma viride [29])
513 µM: MBC (Staphylococcus aureus [9]) | MBC (Bacillus cereus [10]) | MBC (Listeria monocytogenes [12]) | MBC (Pseudomonas aeruginosa [13]) | MFC (Aspergillus ochraceus [25]) | MFC (Aspergillus versicolor [26]) | MFC (Aspergillus fumigatus [28]) | MFC (Penicillium ochrochloron [30]) | MFC (Talaromyces funiculosus [31])
17: MIC (10'-2 umol/ml) [24]
